# Source: PubChem BioAssay AID1259321 (Sanford-Burnham Center for Chemical Genomics, 2017)
# Activity calls are given as the source filed them.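 Rule for the calls: active = half-maximal concentration for changing protein binding to DNA, from the fitted dose curve, below 10 micromolar; inactive = the rest.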
# Target: Nuclear receptor subfamily 1 group D member 1 (Homo sapiens) (UniProt P20393)
# Assay: Rev-erbα–DNA interaction modulators – biochemical, FITC-DNA, fluorescence polarization, dose response (AID 1259321)
# Details: Rev-erb alpha-FITC-DNA binding
# Nuclear receptor subfamily 1 group D member 1 (Homo sapiens), sequence (P20393 whole entry, looked up): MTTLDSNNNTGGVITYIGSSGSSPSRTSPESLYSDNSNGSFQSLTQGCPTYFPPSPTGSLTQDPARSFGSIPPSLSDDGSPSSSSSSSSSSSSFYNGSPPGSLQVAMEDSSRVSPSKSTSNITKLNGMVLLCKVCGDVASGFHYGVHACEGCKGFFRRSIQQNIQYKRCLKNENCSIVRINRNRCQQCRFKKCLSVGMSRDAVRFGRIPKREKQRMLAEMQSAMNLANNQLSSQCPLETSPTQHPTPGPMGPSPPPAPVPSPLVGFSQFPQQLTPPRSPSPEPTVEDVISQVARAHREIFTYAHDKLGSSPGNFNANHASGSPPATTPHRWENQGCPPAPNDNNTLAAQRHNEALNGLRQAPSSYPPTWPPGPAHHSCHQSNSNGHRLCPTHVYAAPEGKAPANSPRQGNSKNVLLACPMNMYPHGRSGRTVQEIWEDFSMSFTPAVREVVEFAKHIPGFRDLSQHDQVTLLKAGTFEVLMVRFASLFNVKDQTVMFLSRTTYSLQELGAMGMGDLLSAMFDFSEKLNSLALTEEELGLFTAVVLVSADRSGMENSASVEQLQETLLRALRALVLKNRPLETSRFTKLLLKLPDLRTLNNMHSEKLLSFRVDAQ
row,SMILES,IC50
1,COc1ccc(-n2nc(C(=O)NCC(=O)Nc3cccc(Cl)c3)c3ccccc3c2=O)cc1OC,2.6 µM
2,Cc1nc2nc(SCC(=O)c3ccccc3)[nH]c2cc1Br,> 40 µM (inactive)
3,O=[N+]([O-])c1ccc(O)c(-c2cc(C(F)(F)F)nc(-c3ccccc3)n2)c1,> 40 µM (inactive)
4,COCCn1c(=NC(=O)c2ccco2)sc2cc(C(=O)OC)ccc21,4.87 µM
5,CCN(CC)c1ccc(/C=C(\C#N)C(=O)c2ccc(Br)cc2)cc1,inactive
6,CSc1ccc(CCNC(=O)c2cc(-c3ccccc3)c(N3CCOCC3)s2)cc1,2.74 µM
7,COc1ccc2c(C)cc(SCC(=O)Nc3ncc(Cl)cc3Cl)nc2c1,7.03 µM
8,O=c1ccc2c(-c3ccccc3)c3ccc(O)cc3oc-2c1,inactive
9,COc1ccc(Cn2ccc3ccc(-c4ccc5ccn(C(=O)c6ccc(C)cc6)c5c4)cc32)cc1,> 40 µM (inactive)
10,COc1ccc2cc(C(=O)Nc3ccc(S(N)(=O)=O)cc3)sc(=O)c2c1OC,3.03 µM
11,COc1ccc(-n2nc(C(=O)NCC(=O)Nc3cc(Cl)c(OC)cc3OC)c3ccccc3c2=O)cc1,inactive
12,COc1ccc(C#Cc2ccc(C3=CC(=O)CC(C)(C)C3=O)cc2)cc1,0.472 µM
13,CCOC(=O)Cn1c(=NC(=O)c2cccs2)sc2cc(C(=O)OC)ccc21,inactive
14,O=C(c1cc2cc(Cl)ccc2[nH]1)N1CCN(c2ccccn2)CC1,> 40 µM (inactive)
15,CCOC(=O)/C(=C\C=C1/Sc2cc(OCC)c(OCC)cc2N1CC)C(C)=O,5.55 µM
16,CCCCOc1ccc(N(CC(=O)NC2CCCCC2)C(=O)c2snc(C(N)=O)c2N)cc1,> 40 µM (inactive)
17,COc1ccc2cc(C#N)c(Nc3cccc(F)c3)nc2c1,7.69 µM
18,CCNC(=O)Nc1ccc2c(c1)C(=O)N(C)[C@H]1CC[C@H](CC(=O)N[C@H](C)c3ccccc3)O[C@@H]1CO2,inactive
19,c1ccc(-c2nc(SCc3nc4ccccc4[nH]3)c3oc4ccccc4c3n2)cc1,2.4 µM
20,CN1C(=O)CSC1=NCC12CC3CC(CC(C3)C1)C2,5.32 µM
21,CCOc1cc(N(CC)CC)ccc1/C=C(/C#N)c1nc2ccccc2[nH]1,inactive
22,COc1cccc(-c2nc(CS(=O)(=O)CC(=O)NCCCc3ccccc3)c(C)o2)c1,7.77 µM
23,CC(=O)NC(=S)Nc1ccc2oc(-c3cc(F)c(F)cc3Cl)nc2c1,3.33 µM
24,CN1/C(=C\C=C2C(=O)NC(=S)NC2=O)C(C)(C)c2ccccc21,6.96 µM
25,Cc1oc2cc3oc(=O)c4c(c3cc2c1C)CCC4,> 40 µM (inactive)
26,Cc1c(C#N)c(N)nc2c3c(sc12)NC(=O)CC3c1ccc(Cl)cc1 (stereo not drawn),> 40 µM (inactive)

row,SMILES,IC50
1,CCN1C(=O)CSC1=NC12CC3CC(CC(C3)C1)C2,> 40 µM (inactive)
2,CN(C)c1nc(-c2cccnc2)nc(-c2ccccc2)c1C#N,inactive
3,Cc1cc(NC(=O)c2cccs2)cc(-c2nc3ncccc3o2)c1O,inactive
4,COc1cccc(NC(=O)CSc2ncnc3c2oc2ccccc23)c1,> 40 µM (inactive)
5,Cc1c(-c2ccc(Cl)cc2)oc(=O)c2c(N)n(-c3ccccc3)nc12,3.98 µM
6,COC(=O)c1ccc(Cn2ccc3ccc(-c4ccc5ccn(C(=O)c6ccccc6C)c5c4)cc32)cc1,9.87 µM
7,Cc1ccc(C2(C(F)(F)F)NC(=O)N3C(=C2C#N)Nc2ccccc23)cc1 (stereo not drawn),2.68 µM
8,C=CCNC(=O)c1ccc(-c2nc(-c3ccc(Cl)cc3Cl)cs2)cc1,4.59 µM
9,Cc1nonc1NC(=O)CSc1nc2ccccc2cc1C#N,inactive
10,Cc1ccsc1C(=O)Nc1ccc(O)c(-c2nc3ccccc3s2)c1,6.87 µM
11,CN(C)c1ccc(N=Nc2ccccc2C(=O)OCC(=O)NCC2CCCCC2)cc1,7.85 µM
12,Cc1ccc(-c2nc3c(c(=O)c4ccccc4n3C)c(=O)n2-c2ccc(F)cc2)cc1,> 40 µM (inactive)
13,CCOc1ccc(NC(=O)CSc2nc(C3CC3)nc3ccccc23)cc1,5.32 µM
14,Cc1c(Cl)cc(C(C)C)c(O)c1CN1CCOCC1,> 40 µM (inactive)
15,COc1ccc(-n2nc(C(=O)NCC(=O)NCc3ccc(F)cc3)c3ccccc3c2=O)cc1OC,inactive
16,O=C1c2cccc3c(O)ccc(c23)C(=O)N1Cc1ccco1,inactive
17,COc1ccc(-c2oc3ccccc3c(=O)c2OC(=O)c2ccc(C)cc2)cc1,inactive
18,Cc1ccc(NC(=S)Nc2nc(CC(=O)Nc3ccccc3)cs2)cc1,3.84 µM
19,CCC(=O)c1ccc(OCC(=O)Nc2ccccc2C(=O)NC2CC2)cc1,4.7 µM
20,Cc1ccc2c(c1C)NC(=O)CC(c1ccccc1O)=N2,> 40 µM (inactive)
21,Fc1c(F)c(C(F)(F)F)c(F)c(F)c1N1CCN(c2ccc3nnc(C(F)(F)F)n3n2)CC1,1.71 µM
22,CCN1/C(=C/c2ccc3cccc(C)c3[n+]2CC)Sc2ccccc21,2.04 µM
23,O=C(O)CN1C(=O)/C(=C\c2cn(CC(=O)N3CCOCC3)c3ccccc23)SC1=S,9.92 µM
24,O=C(COC(=O)c1cc(Br)ccc1O)Nc1cccnc1Cl,2.58 µM
25,CC(OC(=O)c1cc2c(ccc3ccccc32)oc1=O)c1nc2ccccc2s1 (stereo not drawn),inactive
26,COc1ccccc1N(C)S(=O)(=O)c1ccc(C(=O)Nc2nc(C)c(C(C)=O)s2)cc1,inactive

row,SMILES,IC50
1,CCN1C(=O)C(=CC=CN(C)c2ccccc2)SC1=S,inactive
2,Cc1nn2c(N)c(C#N)cnc2c1-c1ccc(Cl)cc1,6.12 µM
3,COc1ccc(C(=O)c2ccc(OC)c(Br)c2)cc1Br,> 40 µM (inactive)
4,COc1ccc(Cl)cc1C(=O)Nc1cccc(-c2ccc3nncn3n2)c1,7.26 µM
5,COc1cccc(C(=O)CSc2nnc(-c3cc(OC)cc(OC)c3)o2)c1,inactive
6,CCCC(Oc1ccc(Br)cc1)c1nc2c3cc(OC)c(OC)cc3nc(=S)n2[nH]1 (stereo not drawn),> 40 µM (inactive)
7,CCCCCc1nc2c(c(=O)c3ccccc3n2C)c(=O)n1Cc1ccc(OC)cc1,2.96 µM
8,COc1ccc(C(=O)NCCNc2nc3cc(C)cc(C)c3cc2C#N)nc1,inactive
9,O=C(CCn1c(=O)c2cccn2c2cccnc21)NCc1cccc(Cl)c1,> 40 µM (inactive)
10,COc1ccc(CN(Cc2cc3cc(OC)c(OC)cc3[nH]c2=O)C(=O)NC2CCCCC2)cc1,3.44 µM
11,COc1ccc(CNC(=O)C2CCC(CNS(=O)(=O)c3cccc4nsnc34)CC2)cc1 (stereo not drawn),8.16 µM
12,CCN1/C(=C/C=C/c2oc3ccc(-c4ccccc4)cc3[n+]2CC)Oc2ccc(-c3ccccc3)cc21,> 40 µM (inactive)
13,CCOC(=O)c1ccc(CNC(=O)CSc2nc(NC(=O)c3ccccc3)c3c(C)c(C)oc3n2)cc1,inactive
14,Cc1cc(C)c2nc(SCC(=O)NCC3CCCO3)c(C#N)cc2c1 (stereo not drawn),inactive
15,CN(C)/C=C1\C=C2C(=O)c3ccccc3N2C1=O,0.714 µM
16,CN(C)c1ccc(/C=C2\NC(=S)N(Cc3ccccc3)C2=O)cc1,> 40 µM (inactive)
17,COc1cc(/C=N/NC(=O)c2c(C)nc3ccc(Cl)cn23)cc(OC)c1OC,> 40 µM (inactive)
18,CN1C(=O)C(=Cc2ccc(N3CCOCC3)o2)C(=O)N(C)C1=O,1.36 µM
19,CC(C)CCN1C(=O)c2cccc3c(N)ccc(c23)C1=O,2.83 µM
20,Cc1ccc(S(=O)(=O)c2nnn3c2nc(N2CCN(c4ccccn4)CC2)c2ccccc23)cc1,0.876 µM
21,CC(=O)c1cc2c(cc1N/C(=N/S(=O)(=O)c1ccc(C)cc1)c1ccc(Cl)cc1)OCO2,> 40 µM (inactive)
22,COc1ccc2c(/C=C/c3cc[n+](C)cc3)c[nH]c2c1,inactive
23,O=c1oc2ccccc2c(NC(c2ccccc2)c2ccccc2)c1[N+](=O)[O-],> 40 µM (inactive)
24,N#CCNC(=O)c1nn2c(C(F)(F)F)cc(-c3ccccc3)nc2c1Br,3.58 µM
25,CC(C)CCSc1nc(N)c(C#N)cc1C#N,2.17 µM
26,O=c1c2ccccc2sc2ccc(Cl)cc12,3.38 µM

row,SMILES,IC50
1,CCn1c2ccccc2c2cc(C3C(C#N)=C(C)NC(C)=C3C#N)ccc21,> 40 µM (inactive)
2,CCN1/C(=C/c2ccc3cc(C)ccc3[n+]2CC)Sc2cc(C)ccc21,> 40 µM (inactive)
3,CCOc1ccc(C(=O)Nc2nc(C)c(C(=O)OC)s2)cc1,2.2 µM
4,Fc1cccc2sc(Nc3nc4cc5c(cc4s3)OCCO5)nc12,inactive
5,Cc1cccc(N2CCN(c3ccc4cc(S(=O)(=O)N5CCCCC5)ccc4n3)CC2)c1C,> 40 µM (inactive)
6,COC(=O)c1sc2nc(-c3ccccc3)c3c(c2c1N)CCCC3,inactive
7,O=C(CSc1nnc(-c2ccncc2)n1-c1ccc(Cl)cc1)c1ccc(Cl)c(Cl)c1,0.278 µM
8,CC1=NCCN1S(=O)(=O)c1c(C(C)C)cc(C(C)C)cc1C(C)C,> 40 µM (inactive)
9,Cc1ccc(-n2c(N)c(C#N)c(-c3ccc(Cl)cc3)c(C#N)c2=O)cc1,4.59 µM
10,CCOC(=O)/C(C#N)=C/C=C1\C=Cc2ccccc2N1CC,> 40 µM (inactive)
11,COc1cc(-c2nn3c(COc4ccccc4)nnc3s2)cc(OC)c1OC,2.99 µM
12,CCOC(=O)c1sc(NC(=S)NC(=O)c2cccc(OC)c2)nc1C,8.54 µM
13,CCOc1cccc2sc(NC(=O)c3ccc(Br)s3)nc12,> 40 µM (inactive)
14,COC(=O)Cn1c(C)c(/C=C/c2cc[n+](C)cc2)c2ccccc21,2.25 µM
15,CCCCCCNC(=O)C(C#N)c1nc2ccccc2nc1N1CCOCC1 (stereo not drawn),> 40 µM (inactive)
16,Cc1ccc(C)c(-n2c(-c3ccc(Br)cc3)csc2=NC(=O)c2ccccc2F)c1,inactive
17,COc1ccc(Cc2nc3ccccc3n2CC(=O)N/N=C/c2ccc(C)cc2O)cc1OC,5.85 µM
18,O=C(Nc1cccc(C(F)(F)F)c1)c1cc(Br)cc2c1OCC2,> 40 µM (inactive)
19,C/C(=N\N(Cc1ccccc1)c1ccccc1)c1ccncc1,6.97 µM
20,COC(=O)c1cccc(Cn2ccc3ccc(-c4ccc5ccn(C(=O)c6ccc(C)cc6)c5c4)cc32)c1,> 40 µM (inactive)
21,Cn1nnnc1-c1cc(Br)ccc1NC(=O)c1ccccc1,inactive
22,CCc1nnc(NC(=O)CSc2nc3cc4c(cc3cc2CC)OCCO4)s1,3.66 µM
23,Cc1cccc2cc(C#N)c(SCC(=O)Nc3ccccc3N3CCOCC3)nc12,inactive
24,CC(=O)OCC1OC(n2c(-c3ccc(Cl)cc3)ccc(C#N)c2=S)C(OC(C)=O)C(OC(C)=O)C1OC(C)=O (stereo not drawn),inactive
25,O=C(NCCc1ccccc1)c1ccc2c(c1)S(=O)(=O)c1cc(Cl)ccc1C2=O,1.84 µM
